Test results reported in patent US8703961B2, “Thiazole derivatives for the treatment of diseases such as cancer” (Merck Patent GmbH, priority 2009, dated 2014).

Legend:
Assay in all cases: filter binding kinase assay
Type in all cases: biochemical
[1] = biological target: T1, PRKD2 (Homo sapiens, UniProt Q9BZL6); settings: derived from % inhibition at 1 μM
T1 construct: purchased
T1 sequence (Q9BZL6 1-878): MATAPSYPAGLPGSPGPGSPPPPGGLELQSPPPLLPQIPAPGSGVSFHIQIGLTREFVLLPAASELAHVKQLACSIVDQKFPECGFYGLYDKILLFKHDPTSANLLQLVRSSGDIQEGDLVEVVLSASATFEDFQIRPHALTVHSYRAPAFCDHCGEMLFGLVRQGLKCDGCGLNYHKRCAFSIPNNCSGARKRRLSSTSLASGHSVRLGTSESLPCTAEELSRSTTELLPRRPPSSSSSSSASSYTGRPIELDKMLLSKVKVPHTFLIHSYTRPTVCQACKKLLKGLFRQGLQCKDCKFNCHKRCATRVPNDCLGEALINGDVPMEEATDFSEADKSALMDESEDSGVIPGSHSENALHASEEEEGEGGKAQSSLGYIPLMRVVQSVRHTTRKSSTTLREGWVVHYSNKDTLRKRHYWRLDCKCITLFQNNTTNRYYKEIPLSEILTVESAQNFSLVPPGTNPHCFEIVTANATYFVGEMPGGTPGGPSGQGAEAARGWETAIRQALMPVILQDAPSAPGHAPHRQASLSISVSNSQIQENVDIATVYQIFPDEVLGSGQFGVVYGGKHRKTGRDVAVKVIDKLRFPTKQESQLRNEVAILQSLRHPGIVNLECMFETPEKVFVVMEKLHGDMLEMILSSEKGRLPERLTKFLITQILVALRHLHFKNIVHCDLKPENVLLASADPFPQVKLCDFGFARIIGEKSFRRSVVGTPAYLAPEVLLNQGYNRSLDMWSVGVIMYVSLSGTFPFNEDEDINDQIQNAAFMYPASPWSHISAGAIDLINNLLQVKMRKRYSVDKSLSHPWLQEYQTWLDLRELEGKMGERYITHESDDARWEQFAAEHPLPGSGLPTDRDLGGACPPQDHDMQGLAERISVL
In short: (§1)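 Each reaction ran at ambient temperature following a five-minute compound preincubation, was started with ATP (5, 20 or 50 […] stock, per enzyme) and stopped with acid; substrate phosphorylation was read by scintillation counting of P81 filters.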

[2] = biological target: T2, SRC (Homo sapiens, UniProt P12931); settings: derived from % inhibition at 1 μM
T2 construct: purchased
T2 sequence (P12931 whole entry, species assumed): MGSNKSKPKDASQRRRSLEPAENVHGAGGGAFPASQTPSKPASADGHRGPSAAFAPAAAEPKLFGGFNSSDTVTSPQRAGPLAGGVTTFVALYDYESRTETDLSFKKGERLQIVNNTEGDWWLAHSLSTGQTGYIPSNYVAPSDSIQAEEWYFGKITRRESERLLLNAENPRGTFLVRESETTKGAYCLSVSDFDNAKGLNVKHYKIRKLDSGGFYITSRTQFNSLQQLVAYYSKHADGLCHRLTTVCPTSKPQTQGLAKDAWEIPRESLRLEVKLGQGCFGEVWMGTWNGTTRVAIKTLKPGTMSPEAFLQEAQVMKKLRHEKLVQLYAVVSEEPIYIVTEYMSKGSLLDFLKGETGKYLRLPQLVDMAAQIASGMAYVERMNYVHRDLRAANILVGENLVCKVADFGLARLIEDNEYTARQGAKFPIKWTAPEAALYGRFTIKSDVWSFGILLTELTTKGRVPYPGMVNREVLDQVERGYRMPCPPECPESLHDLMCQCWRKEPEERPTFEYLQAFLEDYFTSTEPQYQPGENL
In short: as §1

[3] = biological target: T3, CDK2 (Homo sapiens, UniProt P24941); settings: for IC50: derived from % inhibition at 1 μM; for remaining activity at 1 µM: read-out: residual kinase activity CDK2
T3 construct: purchased
In short: as §1

[4] = biological target: T4, EEF2K (Homo sapiens, UniProt O00418); settings: derived from % inhibition at 1 μM
T4 construct: purchased
In short: as §1

[5] = biological target: T5, INSRR (Homo sapiens, UniProt P14616); settings: derived from % inhibition at 1 μM
T5 construct: purchased
T5 sequence (P14616 27-1297, species assumed): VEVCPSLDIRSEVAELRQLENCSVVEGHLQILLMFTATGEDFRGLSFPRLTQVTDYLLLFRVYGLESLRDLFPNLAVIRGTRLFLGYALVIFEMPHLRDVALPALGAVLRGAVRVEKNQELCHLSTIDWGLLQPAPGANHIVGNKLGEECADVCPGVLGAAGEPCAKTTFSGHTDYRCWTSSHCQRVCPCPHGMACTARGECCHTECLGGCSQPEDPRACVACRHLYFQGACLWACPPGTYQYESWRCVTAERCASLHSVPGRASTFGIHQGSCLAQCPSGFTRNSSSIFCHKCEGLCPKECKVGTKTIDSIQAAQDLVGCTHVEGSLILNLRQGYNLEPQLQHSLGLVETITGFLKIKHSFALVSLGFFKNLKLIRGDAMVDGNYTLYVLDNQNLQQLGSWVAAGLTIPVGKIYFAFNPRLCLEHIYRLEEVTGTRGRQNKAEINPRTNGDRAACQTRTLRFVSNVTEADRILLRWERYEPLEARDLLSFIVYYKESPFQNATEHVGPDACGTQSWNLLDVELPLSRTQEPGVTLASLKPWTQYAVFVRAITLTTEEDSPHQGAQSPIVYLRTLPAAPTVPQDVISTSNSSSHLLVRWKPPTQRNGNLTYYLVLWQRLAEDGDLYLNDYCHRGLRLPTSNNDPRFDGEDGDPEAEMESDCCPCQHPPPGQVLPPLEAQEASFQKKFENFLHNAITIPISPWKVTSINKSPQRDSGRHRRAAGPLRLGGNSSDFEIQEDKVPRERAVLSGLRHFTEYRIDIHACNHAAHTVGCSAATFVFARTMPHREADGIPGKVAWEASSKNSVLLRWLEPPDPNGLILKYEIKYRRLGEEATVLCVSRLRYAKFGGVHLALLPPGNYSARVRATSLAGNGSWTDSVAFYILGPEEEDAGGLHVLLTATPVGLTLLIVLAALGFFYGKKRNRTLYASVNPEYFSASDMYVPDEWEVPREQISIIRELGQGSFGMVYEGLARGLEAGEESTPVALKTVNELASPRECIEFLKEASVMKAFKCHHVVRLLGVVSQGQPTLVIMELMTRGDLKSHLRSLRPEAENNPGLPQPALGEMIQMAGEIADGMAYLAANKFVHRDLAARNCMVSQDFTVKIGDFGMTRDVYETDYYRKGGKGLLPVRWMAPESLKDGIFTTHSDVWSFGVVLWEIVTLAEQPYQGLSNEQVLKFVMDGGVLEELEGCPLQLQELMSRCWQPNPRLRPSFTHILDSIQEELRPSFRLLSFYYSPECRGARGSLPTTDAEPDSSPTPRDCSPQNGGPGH
In short: as §1

[6] = biological target: T6, CAMK1 (Homo sapiens, UniProt Q14012); settings: derived from % inhibition at 1 μM
T6 construct: purchased
In short: as §1

[7] = biological target: T7, HIPK3 (Homo sapiens, UniProt Q9H422); settings: derived from % inhibition at 1 μM
T7 construct: purchased
T7 sequence (Q9H422 whole entry, species assumed): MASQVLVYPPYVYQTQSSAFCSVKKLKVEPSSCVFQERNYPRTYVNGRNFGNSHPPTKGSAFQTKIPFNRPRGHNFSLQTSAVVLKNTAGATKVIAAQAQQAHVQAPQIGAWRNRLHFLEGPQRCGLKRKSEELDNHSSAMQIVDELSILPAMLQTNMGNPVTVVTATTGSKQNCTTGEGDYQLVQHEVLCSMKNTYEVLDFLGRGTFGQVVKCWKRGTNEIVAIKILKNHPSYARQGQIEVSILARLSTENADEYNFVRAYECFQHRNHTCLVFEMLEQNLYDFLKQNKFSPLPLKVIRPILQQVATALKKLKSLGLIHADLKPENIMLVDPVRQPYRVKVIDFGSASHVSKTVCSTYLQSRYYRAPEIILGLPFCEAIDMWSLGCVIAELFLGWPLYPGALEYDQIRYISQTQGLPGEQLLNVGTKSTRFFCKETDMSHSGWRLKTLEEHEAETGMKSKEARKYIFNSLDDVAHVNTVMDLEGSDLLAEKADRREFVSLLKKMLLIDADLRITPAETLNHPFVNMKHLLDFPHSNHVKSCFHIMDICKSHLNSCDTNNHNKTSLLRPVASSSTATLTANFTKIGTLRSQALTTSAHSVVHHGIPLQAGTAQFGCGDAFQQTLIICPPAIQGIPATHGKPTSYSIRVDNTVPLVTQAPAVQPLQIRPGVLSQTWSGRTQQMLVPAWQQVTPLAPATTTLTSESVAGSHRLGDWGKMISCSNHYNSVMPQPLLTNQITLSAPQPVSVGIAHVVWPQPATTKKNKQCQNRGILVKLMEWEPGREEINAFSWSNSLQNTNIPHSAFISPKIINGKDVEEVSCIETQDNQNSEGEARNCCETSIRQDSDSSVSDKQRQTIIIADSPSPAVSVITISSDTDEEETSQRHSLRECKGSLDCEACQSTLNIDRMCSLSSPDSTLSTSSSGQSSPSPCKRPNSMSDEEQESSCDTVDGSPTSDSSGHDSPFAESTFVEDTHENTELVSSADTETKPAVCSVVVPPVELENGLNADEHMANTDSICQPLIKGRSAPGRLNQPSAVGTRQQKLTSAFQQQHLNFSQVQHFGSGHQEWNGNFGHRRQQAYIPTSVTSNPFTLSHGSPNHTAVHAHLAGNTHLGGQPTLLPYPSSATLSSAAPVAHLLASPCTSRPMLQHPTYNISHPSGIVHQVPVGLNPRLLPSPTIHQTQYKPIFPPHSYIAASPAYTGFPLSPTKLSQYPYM
In short: as §1

[8] = biological target: T8, HIPK2 (Homo sapiens, UniProt Q9H2X6); settings: for IC50: derived from % inhibition at 1 μM
T8 construct: purchased
In short: as §1

[9] = biological target: T9, MAPK9 (Homo sapiens, UniProt P45984); settings: derived from % inhibition at 1 μM
T9 construct: purchased
T9 sequence (P45984 whole entry, species assumed): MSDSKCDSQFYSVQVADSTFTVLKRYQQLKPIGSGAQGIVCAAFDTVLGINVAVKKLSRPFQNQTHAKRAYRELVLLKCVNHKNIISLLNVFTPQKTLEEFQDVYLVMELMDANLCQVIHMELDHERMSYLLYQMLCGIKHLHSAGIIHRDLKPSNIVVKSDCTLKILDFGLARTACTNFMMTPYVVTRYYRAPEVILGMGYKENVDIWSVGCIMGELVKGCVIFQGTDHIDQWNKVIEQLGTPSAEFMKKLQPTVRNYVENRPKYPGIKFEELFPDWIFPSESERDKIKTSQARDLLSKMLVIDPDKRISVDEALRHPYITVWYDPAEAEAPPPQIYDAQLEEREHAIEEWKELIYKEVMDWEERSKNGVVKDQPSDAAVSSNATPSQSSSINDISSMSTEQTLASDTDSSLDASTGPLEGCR
In short: as §1

[10] = biological target: T10, CAMKK2 (Homo sapiens, UniProt Q96RR4); settings: derived from % inhibition at 1 μM
T10 construct: purchased
T10 sequence (Q96RR4 whole entry, species assumed): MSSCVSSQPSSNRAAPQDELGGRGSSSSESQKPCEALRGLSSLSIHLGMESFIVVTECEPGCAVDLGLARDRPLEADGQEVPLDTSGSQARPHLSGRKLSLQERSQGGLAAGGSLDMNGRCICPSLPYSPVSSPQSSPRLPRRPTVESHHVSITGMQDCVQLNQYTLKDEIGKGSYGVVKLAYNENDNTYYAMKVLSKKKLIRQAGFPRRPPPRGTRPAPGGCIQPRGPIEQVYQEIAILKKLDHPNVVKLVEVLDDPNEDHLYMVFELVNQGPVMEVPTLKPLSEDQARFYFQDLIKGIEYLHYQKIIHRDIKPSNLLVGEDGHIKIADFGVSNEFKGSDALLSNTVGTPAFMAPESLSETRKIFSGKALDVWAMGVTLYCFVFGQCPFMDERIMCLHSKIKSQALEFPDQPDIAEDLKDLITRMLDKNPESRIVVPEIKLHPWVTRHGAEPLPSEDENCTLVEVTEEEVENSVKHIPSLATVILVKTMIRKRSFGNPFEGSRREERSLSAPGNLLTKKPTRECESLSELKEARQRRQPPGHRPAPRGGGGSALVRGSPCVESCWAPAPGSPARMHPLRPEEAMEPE
In short: as §1

[11] = biological target: T11, AKT1 (Homo sapiens, UniProt P31749); settings: derived from % inhibition at 1 μM
T11 construct: purchased
T11 sequence (P31749 whole entry, species assumed): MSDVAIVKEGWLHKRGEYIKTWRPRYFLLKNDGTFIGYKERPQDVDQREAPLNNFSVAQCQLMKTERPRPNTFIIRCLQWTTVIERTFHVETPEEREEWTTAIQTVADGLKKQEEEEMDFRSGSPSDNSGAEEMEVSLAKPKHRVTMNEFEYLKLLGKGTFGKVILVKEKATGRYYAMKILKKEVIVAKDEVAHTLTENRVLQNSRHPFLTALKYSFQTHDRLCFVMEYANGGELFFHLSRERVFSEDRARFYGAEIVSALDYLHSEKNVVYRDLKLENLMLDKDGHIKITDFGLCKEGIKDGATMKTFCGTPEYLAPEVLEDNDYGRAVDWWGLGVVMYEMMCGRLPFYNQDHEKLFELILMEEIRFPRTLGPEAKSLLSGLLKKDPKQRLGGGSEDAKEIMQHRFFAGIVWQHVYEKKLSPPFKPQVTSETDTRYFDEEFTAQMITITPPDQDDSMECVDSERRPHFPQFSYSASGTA
In short: as §1

[12] = biological target: T12, MARK4 (Homo sapiens, UniProt Q96L34); settings: derived from % inhibition at 1 μM
T12 construct: purchased
T12 sequence (Q96L34 1-752): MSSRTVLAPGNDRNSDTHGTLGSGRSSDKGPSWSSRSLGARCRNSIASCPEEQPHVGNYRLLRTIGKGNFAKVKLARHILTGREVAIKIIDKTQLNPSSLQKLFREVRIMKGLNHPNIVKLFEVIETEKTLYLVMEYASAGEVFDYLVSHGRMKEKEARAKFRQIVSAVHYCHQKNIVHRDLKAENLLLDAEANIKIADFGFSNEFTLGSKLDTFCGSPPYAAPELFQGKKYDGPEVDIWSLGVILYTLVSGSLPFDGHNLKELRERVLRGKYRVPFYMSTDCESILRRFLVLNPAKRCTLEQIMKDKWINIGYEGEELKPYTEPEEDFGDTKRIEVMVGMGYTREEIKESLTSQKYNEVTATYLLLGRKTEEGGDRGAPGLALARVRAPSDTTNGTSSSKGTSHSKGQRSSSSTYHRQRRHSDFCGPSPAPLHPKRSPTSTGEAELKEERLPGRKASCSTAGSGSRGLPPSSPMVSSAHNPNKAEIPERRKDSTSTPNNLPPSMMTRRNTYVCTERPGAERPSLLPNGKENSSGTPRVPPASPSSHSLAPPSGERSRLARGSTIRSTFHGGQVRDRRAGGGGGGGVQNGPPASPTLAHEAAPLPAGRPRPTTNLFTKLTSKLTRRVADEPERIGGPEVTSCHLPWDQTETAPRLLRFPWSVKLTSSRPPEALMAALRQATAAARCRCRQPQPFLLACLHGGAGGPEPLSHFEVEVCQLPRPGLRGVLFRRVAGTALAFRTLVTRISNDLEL
In short: as §1

| Compound | IC50 [1] [µM] | IC50 [2] [µM] | IC50 [3] [µM] | remaining activity at 1 µM [3] [%] | IC50 [4] [µM] | IC50 [5] [µM] | IC50 [6] [µM] | IC50 [7] [µM] | IC50 [8] [µM] | IC50 [9] [µM] | IC50 [10] [µM] | IC50 [11] [µM] | IC50 [12] [µM] | remaining activity at 1 µM ([8]; read-out: residual kinase activity HIPK2) [%] |
| --- | --- | --- | --- | --- | --- | --- | --- | --- | --- | --- | --- | --- | --- | --- |
| c1ccc(Cc2c[nH]c3ncsc23)cc1 [Compound A7, 6-benzyl-4H-pyrrolo[2,3-d]thiazole] | 1 to 10 | 1 to 10 | 0.01 to 1 | 41 | 10 to 100 | > 1 | 1 to 10 | 1 to 10 | > 1 | 10 to 100 | 10 to 100 | > 1 | > 1 | – |
| Nc1ncsc1C#Cc1cnc2[nH]ccc2c1 [Compound A22, 5-(1H-pyrrolo[2,3-b]pyridin-5-ylethynyl)thiazol-4-ylamine] | > 1 | 10 to 100 | 1 to 10 | 52 | 10 to 100 | 1 to 10 | 10 to 100 | 1 to 10 | 0.01 to 1 | > 1 | > 1 | 10 to 100 | 10 to 100 | 44 |
| CC(C)(C)OC(=O)Nc1nc(-c2ccncc2)sc1C#CCN1CCOCC1 [Compound A25, tert-butyl[5-(3-morpholin-4-ylprop-1-ynyl)-2-pyridin-4-ylthiazol-4-yl]-carbamate] | > 1 | 1 to 10 | 10 to 100 | – | > 1 | > 1 | 1 to 10 | 10 to 100 | > 1 | > 1 | > 1 | > 1 | 10 to 100 | – |
| CC(C)(C)OC(=O)Nc1ncsc1C#CCN1C(=O)c2ccccc2C1=O [Compound A26, tert-butyl{5-[3-(1,3-dioxo-1,3-dihydroisoindol-2-yl)prop-1-ynyl]-thiazol-4-yl}carbamate] | > 1 | 10 to 100 | 0.01 to 1 | 28 | 10 to 100 | 1 to 10 | > 1 | 10 to 100 | 1 to 10 | > 1 | 10 to 100 | > 1 | > 1 | – |
| Nc1ncsc1C#Cc1cccc(O)c1 [Compound A27, 3-(4-aminothiazol-5-ylethynyl)phenol] | 1 to 10 | 1 to 10 | 10 to 100 | – | 1 to 10 | > 1 | 1 to 10 | 1 to 10 | > 1 | 1 to 10 | 10 to 100 | > 1 | 1 to 10 | – |
